Counter-ions that a name gives are not always drawn.
Legend:
Type in all cases: physicochemical
[1] = Solubility in organic solvents
[2] = Hygroscopicity (descriptive)
[3] = Equilibration in solvents and aqueous media, solid form by XRPD
Intrinsic dissolution = test: Intrinsic dissolution
Aqueous solubility = conditions: water
[4] = Sorption-desorption isotherms, VTI humidity balance; conditions: for Sorption: 25° C., first sorption cycle; for Desorption: in % (unit assumed)
Experimental: Sorption-desorption isotherms were recorded by a VTI humidity balance. The salts of (N-hydroxy-3-[4-[[[2-(2-methyl-1H-indol-3-yl)ethyl]amino]methyl]phenyl]-2E-2-propenamide were first subjected to a drying step (25° C., r.h. below 2%, 2 hours) and then to a sorption-desorption-sorption sequence, with each RH % step retained for 3 hours. The free base was kept below 2% r.h. for several hours, and thus was completely dehydrated after the drying step. Only the data of the first sorption cycle are given in the table, since, in all cases, the two sorption cycles were very similar.

Cc1[nH]c2ccccc2c1CCNCc1ccc(/C=C/C(=O)NO)cc1 [Form A of the L-tartarate salt, N-hydroxy-3-[4-[[[2-(2-methyl-1H-indol-3-yl)ethyl]amino]methyl]phenyl]-2E-2-propenamide]
solubility in acetone, ethyl acetate and other common organic solvents ([1]; acetone, ethyl acetate and other common organic solvents): good solubility
solubility in alcohols ([1]; alcohols): limited solubility
hygroscopicity [2]: slightly hygroscopic
XRPD form after equilibration ([3]; 0.1 N HCl): chloride salt
XRPD form after equilibration ([3]; 2-Propanol): No change
XRPD form after equilibration ([3]; Acetone): Form C of the tartarate salt is obtained
XRPD form after equilibration ([3]; Acetone, listed as L-Tartarate): No change
XRPD form after equilibration ([3]; Ethanol): No change
XRPD form after equilibration ([3]; Ethyl Acetate): No change
XRPD form after equilibration ([3]; Methanol): converts to form C
XRPD form after equilibration ([3]; Methanol, listed as L-Tartarate): Changed to new
XRPD form after equilibration ([3]; pH = 6.8 buffer (phosphate)): free base
XRPD form after equilibration ([3]; water): No change
intrinsic dissolution (Intrinsic dissolution): good
aqueous solubility (Aqueous solubility): 3500 µg/mL
moisture at 85% r.h. ([4]; 85% r.h.): less than 0.5%
Sorption ([4]; Sample RH % 1.5): 0%
Sorption ([4]; Sample RH % 5): 0.04%
Desorption ([4]; Sample RH % 5): −0.09
Sorption ([4]; Sample RH % 25): 0.11%
Desorption ([4]; Sample RH % 25): 0.03
Sorption ([4]; Sample RH % 50): 0.2%
Desorption ([4]; Sample RH % 50): 0.16
Sorption ([4]; Sample RH % 75): 0.31%
Desorption ([4]; Sample RH % 75): 0.36
Sorption ([4]; Sample RH % 85): 0.35%
Desorption ([4]; Sample RH % 85): 0.42
Sorption ([4]; Sample RH % 95): 0.49%
Desorption ([4]; Sample RH % 95): 0.49

Cc1[nH]c2ccccc2c1CCNCc1ccc(/C=C/C(=O)NO)cc1 [Form A of the maleate salt, N-hydroxy-3-[4-[[[2-(2-methyl-1H-indol-3-yl)ethyl]amino]methyl]phenyl]-2E-2-propenamide]
solubility in methanol and ethanol ([1]; methanol and ethanol): high solubility
solubility in other common / remaining organic solvents ([1]; other common organic solvents): considerable solubility
hygroscopicity [2]: nonhygroscopic
XRPD form after equilibration ([3]; 2-Propanol): No change
XRPD form after equilibration ([3]; Acetone): No change
XRPD form after equilibration ([3]; Ethanol): No change
XRPD form after equilibration ([3]; Ethyl Acetate): No change
XRPD form after equilibration ([3]; Methanol): No change
XRPD form after equilibration ([3]; pH = 6.8 buffer (phosphate)): No change
XRPD form after equilibration ([3]; water): No change
intrinsic dissolution (Intrinsic dissolution): good
aqueous solubility (Aqueous solubility): 2600 µg/mL
Sorption ([4]; Sample RH % 1.5): 0%
Sorption ([4]; Sample RH % 5): 0.02%
Desorption ([4]; Sample RH % 5): −0.02
Sorption ([4]; Sample RH % 25): 0.07%
Desorption ([4]; Sample RH % 25): 0.05
Sorption ([4]; Sample RH % 50): 0.12%
Desorption ([4]; Sample RH % 50): 0.10
Sorption ([4]; Sample RH % 75): 0.16%
Desorption ([4]; Sample RH % 75): 0.17
Sorption ([4]; Sample RH % 85): 0.17%
Desorption ([4]; Sample RH % 85): 0.19
Sorption ([4]; Sample RH % 95): 0.21%
Desorption ([4]; Sample RH % 95): 0.21
